In paper PMC9640981, “Plant vernalization proteins contain unusual PHD superdomains without histone H3 binding activity” (The Journal of Biological Chemistry, 2022):

What was measured:
[1] = system: ^15N-labeled Pd VIN3_123-326; assay: NMR (BEST-TROSY) interaction of negatively charged polymers with Pd VIN3 PHD superdomain; type: binding, Phoenix dactylifera
Protocol: For NMR spectroscopy, A. thaliana VIN3_150-208 and P. dactilyfera VIN3_123-326 were expressed in M9 minimal medium supplemented with 0.4% glucose, antibiotics, trace elements, 25 ml overnight culture, and 2 g of ^15N-H4Cl per liter of expression culture. Cultures were grown and processed essentially as described before. NMR samples containing 50 μM ^15N-labeled VIN3_150-208 or VIN3_123-326 were prepared in aqueous buffer (25 mM Tris pH 8, 150 mM NaCl, and 1 mM DTT). The 50 μM ^15N-labeled VIN3_150-208 or VIN3_123-326 was incubated with 0.5 mM histone H3 peptides resuspended in 25 mM Tris pH 8, 150 mM NaCl, and 1 mM DTT for >30 min before measurement. Spectra were recorded on a Bruker Avance-III spectrometer operating at 600 MHz ^1H frequency and equipped with a 5 mm inverse detection cryogenic probe. BEST-TROSY shift correlation experiments ([45]) were acquired with 256 × 1024 points in t1 and t2, respectively. Spectra were processed in TopSpin version 3.2 (Bruker), with linear prediction in t1, giving a digital resolution of 2.2 and 8.2 Hz/point in the processed data.
Generation of nucleic acid probes for NMR
FLC DNA was used as a template for the design of a dsDNA 60-mer probe, generated by annealing the sequence (5′ […] 3′) and its complementary oligonucleotide for 2 min at 95 °C. […]

Pd VIN3_123-326 = assay: ITC binding to Pd VIN3 PHD superdomain; parameters: species or system Phoenix dactylifera; details: 25 °C, Pd VIN3_123-326 with 60-mer DNA
Protocol: VIN3_123-326 from P. dactilyfera was amplified by PCR from synthetic codon optimized genes (gBlocks, Integrated DNA Technologies) and subcloned into pEC-LIC-His-3C (kindly provided by Jurg Muller) containing a hexahistidine tag and a 3C protease cleavage site at the N terminus. VIN3_123-326 was expressed and purified as described previously for VIN3_150-208. In this case, after 3C cleavage overnight, the sample was loaded on a HiLoad 26/600 Superdex 200 pg column (GE Healthcare) in 25 mM Tris pH 8, 150 mM NaCl, and 1 mM DTT.
ITC was carried out at 25 °C with an iTC 200 Microcalorimeter (GE Healthcare) in 25 mM Tris pH 8, 150 mM NaCl, and 1 mM DTT. Titrations consisted of 19 consecutive 2 μl injections of 0.25 to 1 mM peptide solution (following a preinjection of 0.5 μl) into 50 μM protein (VIN3PHD, VIN3_123-326, VIN3_116-307, OBE1_193-372, or pVP13 VIN3_130-299) at time intervals of 120 s. ITC data were analyzed using MicroCal PEAQ-IT Analysis Software (Malvern Sciences).

Substance | perturbation of BEST-TROSY spectrum, heparin (in words) ([1]; 50 μM ^15N-labeled VIN3_123-326, 4 μM heparin) | affinity / binding of nucleic acid (in words) (Pd VIN3_123-326; ITC titrations, pH 8) | Kd (Pd VIN3_123-326; ITC, 25 mM Tris pH 8, 150 mM NaCl, 1 mM DTT, representative profile) | perturbation of BEST-TROSY spectrum (in words) ([1]; 50 μM ^15N-labeled VIN3_123-326, 4 μM 60-mer dsDNA or 63-mer RNA (Fig. 6A, B), ssDNA comparison E. F.-E., unpublished)
heparin | same set of perturbations | – | – | –
60-mer ssDNA: FLC 60-mer predicted to lack secondary structure, 5′ GAAGAAAAAGTAGATAGGCACAAAAAATAGAAAGAAATAAAGCGAGAAAAGGAAAAAAAA 3′ (DNA, backbone and methylation of C not given here) | – | weak binding in the low millimolar range | ~5 mM | less effective in eliciting spectral changes than dsDNA
